# Laboratory results taken from publication PMC11827123 (Journal of medicinal chemistry, 2023).
# Legend:
# RBC = RBC lysis in vitro assay; format: cell-based
# [1] = system: human red blood cells (RBCs); test: In vitro hemolysis assay, human RBCs; format: cell-based
# [2] = Mouse pharmacokinetics, oral and intravenous dosing; details: mice, PK study with oral and iv dosing
# Microsomal = format: in vitro ADME, human; details: result in words
# [3] = system: mouse red blood cells (RBCs); test: In vitro hemolysis assay, mouse RBCs; format: cell-based
# FeSSIF solubility = format: physicochemical; details: result in words
# MOLT4 cells = test: Quantitative MS degradation proteomics in MOLT4 cells; details: 6 h treatment
# HepG2 cell line [4] = test: LipidTOX Red phospholipidosis imaging assay; format: cell-based
# HepG2 cell line [5] = test: HepG2 viability; format: cell-based
# [6] = system: HiBiT-tagged v3 EML4-ALK (WT and clinically relevant mutations); test: EML4-ALK HiBiT degradation assay, general / clinically relevant mutations; details: result in words
# [7] = target: HiBiT-tagged v3 EML4-ALK G1202R (Homo sapiens, UniProt Q9HC35+Q9UM73, G1202R); test: EML4-ALK HiBiT degradation assay, G1202R; details: Ba/F3, result in words
# Sequence of HiBiT-tagged v3 EML4-ALK G1202R (Q9UM73 1058-1620 G1202R limits assumed, one chain of several): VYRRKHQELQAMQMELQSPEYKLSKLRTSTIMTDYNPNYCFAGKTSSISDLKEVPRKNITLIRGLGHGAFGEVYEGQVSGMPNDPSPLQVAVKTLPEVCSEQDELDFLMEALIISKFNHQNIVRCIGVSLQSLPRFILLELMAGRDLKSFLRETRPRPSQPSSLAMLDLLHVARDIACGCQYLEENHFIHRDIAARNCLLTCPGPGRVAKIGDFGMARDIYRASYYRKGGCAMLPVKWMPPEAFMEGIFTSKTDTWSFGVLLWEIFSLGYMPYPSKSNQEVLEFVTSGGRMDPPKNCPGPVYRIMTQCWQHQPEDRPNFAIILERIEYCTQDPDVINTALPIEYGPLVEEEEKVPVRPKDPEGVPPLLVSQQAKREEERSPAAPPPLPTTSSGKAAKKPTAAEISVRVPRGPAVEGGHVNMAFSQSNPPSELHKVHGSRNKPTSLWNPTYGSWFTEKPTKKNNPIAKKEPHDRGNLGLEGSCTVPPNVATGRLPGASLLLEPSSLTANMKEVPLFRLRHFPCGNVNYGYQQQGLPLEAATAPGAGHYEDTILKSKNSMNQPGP
# [8] = target: HiBiT-tagged v3 EML4-ALK wild-type (WT) (Homo sapiens, UniProt Q9HC35+Q9UM73); test: EML4-ALK HiBiT degradation assay, WT; details: result in words
# Sequence of HiBiT-tagged v3 EML4-ALK wild-type (WT) (Q9UM73 1058-1620 limits assumed, one chain of several): as the sequence (Q9UM73 1058-1620 G1202R limits assumed, one chain of several) above, with R145G counted along it
structure (smiles),measurement,setting,value
"COc1cc(CCNCCCCCC#Cc2cccc3c2C(=O)N(C2CCC(=O)NC2=O)C3=O)c(C)cc1Nc1ncc(Cl)c(Nc2ccccc2S(=O)(=O)C(C)C)n1 (centres unmarked) [CPD-198, 4-(7-((4-((5-Chloro-4-((2-(isopropylsulfonyl)-phenyl)amino)pyrimidin-2-yl)amino)-5-methoxy-2-methylphenethyl)amino)hept-1-yn-1-yl)-2-(2,6-dioxopiperidin-3-yl)isoindoline-1,3-dione]",RBC lysis in vitro,RBC,caused RBC lysis
"COc1cc(CCNCCCCCC#Cc2cccc3c2CN(C2CCC(=O)NC2=O)C3=O)c(C)cc1Nc1ncc(Cl)c(Nc2ccccc2S(=O)(=O)C(C)C)n1 (centres unmarked) [CPD-985, 3-(4-(7-((4-((5-Chloro-4-((2-(isopropylsulfonyl)-phenyl)amino)pyrimidin-2-yl)amino)-5-methoxy-2-methylphenethyl)amino)hept-1-yn-1-yl)-1-oxoisoindolin-2-yl)piperidine-2,6-dione]",in vitro hemolysis,[1],confirmed
same,hemolysis in vivo,[2],hemolysis was also observed
same,metabolic / microsomal stability,Microsomal,slightly improved metabolic stability relative to CPD-198
same,in vitro hemolysis,[3],confirmed
same,solubility in fed state simulated intestinal fluid (FeSSIF),FeSSIF solubility,good solubility
"COc1cc(C2CCN(CCCCCC#Cc3cccc4c3CN(C3CCC(=O)NC3=O)C4=O)CC2)c(C)cc1Nc1ncc(Cl)c(Nc2ccccc2S(=O)(=O)C(C)C)n1 (centres unmarked) [CPD-1108, 3-(4-(7-(4-(4-((5-Chloro-4-((2-(isopropylsulfonyl)phenyl)amino)pyrimidin-2-yl)amino)-5-methoxy-2-methylphenyl)piperidin-1-yl)hept-1-yn-1-yl)-1-oxoisoindolin-2-yl)piperidine-2,6-dione]",RBC lysis in vitro,RBC,weak positive
COc1cc(C2CCN(CCCC#Cc3cccc4c3CN(C3CCC(=O)NC3=O)C4=O)CC2)c(C)cc1Nc1ncc(Cl)c(Nc2ccccc2S(=O)(=O)C(C)C)n1 (centres unmarked) [CPD-1131],metabolic / microsomal stability,Microsomal,good microsomal stability
same,proteins degraded to any significant extent,MOLT4 cells,five
same,RBC lysis in vitro,RBC,RBC lysis was avoided
"COc1cc(C2CCN(CC3CN(c4ccc5c(c4)C(=O)N(C4CCC(=O)NC4=O)C5=O)C3)CC2)c(C)cc1Nc1ncc(Cl)c(Nc2ccccc2S(=O)(=O)C(C)C)n1 (centres unmarked) [CPD-1224, 5-{3-[(4-{4-[(5-Chloro-4-{[2-(propane-2-sulfonyl)phenyl]amino}pyrimidin-2-yl)amino]-5-methoxy-2-methylphenyl}piperidin-1-yl)methyl]azetidin-1-yl}−2-(2,6-dioxopiperidin-3-yl)-2,3-dihydro-1H-isoindole-1,3-dione]",metabolic / microsomal stability,Microsomal,improved metabolic stability relative to the isoindolinone congener CPD-1793
same,phospholipidosis (phospholipid accumulation),HepG2 cell line [4],did not possess these effects
same,RBC lysis in vitro,RBC,did not possess RBC lysis
same,cytotoxicity,HepG2 cell line [5],did not possess these effects
"COc1cc(C2CCN(CC3CN(c4ccc5c(c4)C(=O)N(C4CCC(=O)N(C)C4=O)C5=O)C3)CC2)c(C)cc1Nc1ncc(Cl)c(Nc2ccccc2S(=O)(=O)C(C)C)n1 (centres unmarked) [CPD-1224NC, 5-(3-((4-(4-((5-Chloro-4-((2-(isopropylsulfonyl)-phenyl)amino)pyrimidin-2-yl)amino)-5-methoxy-2-methylphenyl)piperidin-1-yl)methyl)azetidin-1-yl)-2-(1-methyl-2,6-dioxopiperidin-3-yl)isoindoline-1,3-dione]","EML4-ALK degradation potency / efficacy (general, clinical mutations)",[6],retains weak degradation activity
"CCc1cc2c(cc1N1CCN(CC3CN(c4ccc5c(c4)C(=O)N(C4CCC(=O)NC4=O)C5=O)C3)CC1)C(C)(C)c1[nH]c3cc(C#N)ccc3c1C2=O (centres unmarked) [CPD-1403, 8-(4-((1-(2-(2,6-Dioxopiperidin-3-yl)-1,3-dioxoisoindolin-5-yl)azetidin-3-yl)methyl)piperazin-1-yl)-9-ethyl-6,6-dimethyl-11-oxo-6,11-dihydro-5H-benzo[b]carbazole-3-carbonitrile]",metabolic / microsomal stability,Microsomal,high microsomal stability
Cc1cc(Nc2ncc(Cl)c(Nc3ccccc3S(=O)(=O)C(C)C)n2)c(OC(C)C)cc1C1CCN(CCOCCOCCNC(=O)CNc2cccc3c2C(=O)N(C2CCC(=O)NC2=O)C3=O)CC1 (centres unmarked) [TL13–112],degradation activity for G1202R mutation,[7],low degradation activity
same,"shift between cellular ALK occupancy (NanoBRET) and degradation potency, WT",[8],only a small shift
"Cc1cc(Nc2ncc(Cl)c(Nc3ccccc3S(=O)(=O)C(C)C)n2)c(OC(C)C)cc1C1CCNCC1 [ceritinib, reference compound]",phospholipidosis (phospholipid accumulation),HepG2 cell line [4],confirmed the phospholipidosis
same,cytotoxicity,HepG2 cell line [5],cytotoxicity
